Laboratory results as given in patent publication US20220334127A1, “IN VITRO METHOD FOR OBTAINING CLINICAL DATA IN PATIENTS SUFFERING FROM AN INFLAMMATORY DISEASE” (FUNDACIÓN PARA LA FORMACIÓN E INVESTIGACIÓN SANITARIAS DE …, priority 2019, published 2022).

Experiments:
monocytes = test: Mitochondrial ROS production (MitoSOX) in human monocytes; format: cell-based; settings: healthy donor monocytes, ATP 3 mM 30 min (FIG. 5f)
NLRP3 inflammasome = test: IL-1β release from BMDMs pre-treated, washed, LPS-primed and stimulated with nigericin; format: cell-based, mouse; settings: P2X7-receptor-deficient macrophages (FIG. 6c)
Description: FIG. 6. P2X7 receptor stimulation induces an impairment of the NLRP3 inflammasome in monocytes. (a-b) Percentage of monocytes with ASC-specks (a) and release of […] from PBMCs (b) isolated from healthy donor blood samples treated with ATP (3 mM, 30 min; ATP-pre), then washed and primed with or without LPS (1 μg/ml, 2 h) and then treated for 20 min with ATP (3 mM; ATP-post) or nigericin (10 μM) as indicated. (c) IL-1β release from wild type or P2rx7^−/− BMDMs treated as in a, but with 4 h LPS priming and 30 min of ATP or nigericin. (d) IL-1β release from wild type or P2rx7^−/− BMDMs treated for 30 min with antimycin A (5 μM) or FCCP (1 μM) and then washed and primed with LPS (1 μg/ml, 4 h) and then stimulated with nigericin (10 μM, 30 min) as indicated. (e) Expression of Nrlp3 and Illb genes analyzed by quantitative PCR from wild type or P2rx7^−/− BMDMs treated with ATP (3 mM, 30 min; ATP-pre), then washed and primed with or without LPS (100 ng/ml, 4 h). (f) Kaplan-Meier representation of wild type (top) or P2rx7^−/− (bottom) mice survival after sham operation (dotted line), or CLP operation (continuous line); some mice groups were i.p. injected with ATP (0.5 mg/g) 30 min before operation (dashed lines). Wild type CLP n=10, CLP+ATP n=8, sham n=4, sham+ATP n=4; P2rx7^−/− CLP n=4, CLP+ATP n=6, sham n=3. (g) IL-1β from peritoneal lavage (left) or bacterial load in blood (right) from wild type sham, CLP or CLP+ATP mice after 24 h. Each dot represents a single independent experiment (c,d), a sample from an individual healthy donor (a,b,e) or a single mouse (g); average±standard error is represented in panels a-e,g; *p<0.05; **p<0.01; ns, no significant difference (p>0.05); Mann-Whitney test was used for a,b,d,e; Kruskal-Wallis test was used for c; Long-rank test for f.
FIG. 7. Mitochondrial dysfunction mediates P2X7 receptor induced NLRP3 inflammasome impairment. (a) Mitochondrial membrane depolarization in BMDMs treated with ATP (3 mM, 30 min), then washed out and incubated for the indicated times in the absence or presence of LPS (1 μg/ml) as indicated. […] (e) Representative histogram plot of HIF-1α staining (left) or quantification of HIF-1α mean intensity fluorescence increase (ΔMFI, right) in monocytes isolated from healthy donor blood samples and treated or not with ATP (1 mM, 30 min) in the presence or absence of AZ11645373 (10 μM) or PDTC (10 μM), and then washed and cultured for 2 h; non-stained monocytes (light grey, left). […] (g) Expression of HIF1A gene analyzed by quantitative PCR from control surgery group and septic patients PBMCs; septic patients are separated into NLRP3 non-immunocompromised (grey bar) and immunocompromised (black bar). […]

SMILES: Nc1ncnc2c1ncn2[C@@H]1O[C@H](COP(=O)(O)OP(=O)(O)OP(=O)(O)O)[C@@H](O)[C@H]1O [ATP, adenosine triphosphate]
- mitochondrial ROS production (monocytes): an increase in mitochondrial ROS production
- NLRP3 inflammasome inhibition when ATP applied before LPS priming (NLRP3 inflammasome): did not present NLRP3 inflammasome inhibition
